# Laboratory results from patent US20160030373A1, “2-AAA as a Biomarker and Therapeutic Agent for Diabetes” (THE GENERAL HOSPITAL CORPORATION, priority 2013, published 2016).
# What was measured:
# C57B/L6 male mice [1] = assay: Fasting plasma glucose in mice given 2-AAA chronically via drinking water; format: in vivo; settings: for fasting glucose levels: 2-AAA 500 mg/kg/day via drinking water, mean ± SEM
# Method: FIGS. 2A and B are graphs depicting fasting plasma glucose levels in 2-AAA in mice fed either a standard chow (2A) or high-fat diet (2B). Fasting plasma glucose levels were measured weekly in mice fed either a standard chow (left) or high-fat diet (right) beginning at 6 weeks of age, with simultaneous 2-AAA treatment via drinking water (500/mg/kg/day) or water alone for the subsequent 5 weeks. (n=24 mice per condition) (*p<0.05; **p<0.01; ***p<0.001).
# The effect of a Western-style diet on circulating 2-AAA levels in mice was examined. C57BL/6 male mice (Jackson Laboratories, Bar Harbor, Me.) were housed in separate cages with free access to food and water. Mice were fed a standard chow diet containing 22.5% protein, 52% carbohydrates, 6% fat, 6% ash and 4% fiber (Prolab Isopro RMH 3000, Brentwood, Mo.) or a high-fat diet containing 20 kcal % protein, 20 kcal % carbohydrate and 60 kcal % fat (DIO formula, D12492, Research Diets, Inc, New Brunswick, N.J.) as indicated. The total energy equivalent was 3.46 kcal/gm for the standard chow diet and 5.24 kcal/gm for the high fat diet.
# (§1) Intervention studies in mice were completed to examine whether 2-AAA might play a contributory or compensatory role in glucose homeostasis by performing 2-AAA. For this study, four independent cohorts of 24 C57B/L6 male mice entered the study protocol at 6 weeks of age. Two cohorts received the standard chow diet and two cohorts received a high-fat diet. Half of the mice assigned to each diet received 2-AAA (500 mg/kg/day equivalent to a starting dose of 12.03±0.30 mM) via the drinking water for up to five weeks. Pre-weighed food and water were administered to each cage. Food and water intake was monitored weekly. Mice supplemented with 2-AAA had 33% higher plasma levels of this metabolite by one week of treatment (p=0.018).
# Fasting plasma glucose levels were measured weekly in mice fed either a standard chow (left) or high-fat diet (right) beginning at 6 weeks of age, with simultaneous 2-AAA treatment via drinking water (500/mg/kg/day) or water alone for the subsequent 5 weeks. […]
# [2] = Food intake and weight in control and 2-AAA treated mice; format: in vivo; settings: 2-AAA 500 mg/kg/day via drinking water, up to 5 weeks
# From the text: FIGS. 3A and 3B are graphs depicting serial weights and food intake in control and 2-AAA treated animals.
# as §1
# Fasting plasma glucose levels were measured weekly in mice fed either a standard chow (left) or high-fat diet (right) beginning at 6 weeks of age, with simultaneous 2-AAA treatment via drinking water (500/mg/kg/day) or water alone for the subsequent 5 weeks. (n=24 mice per condition) (*p<0.05; **p<0.01; ***p<0.001). For mice on the SCD, fasting glucose levels were 109.5±3.8 mg/dL for the 2-aminoadipic treated animals as compared to 124.5±4.9 mg/dL, for the untreated controls after 5 weeks (p<0.01, FIG. 2A). […]
# C57B/L6 male mice [3] = assay: Intra-peritoneal glucose tolerance test (IPGTT) after chronic 2-AAA treatment; format: in vivo; settings: IPGTT 1.5 mg/g; mice fed SCD and HFD for 5 weeks or greater
# Method: FIG. 4 is a graph depicting plasma glucose levels in 2-AAA mice fed either a standard chow (left) or high-fat diet (right) following IPGTT challenge after completion of the 2-AAA chronic treatment in mice fed either the standard chow or high-fat diet. (n=12 mice per condition) (*p<0.05; **p<0.01).
# (§2) Fasting insulin levels in mice were measured by an ELISA kit (Crystal Chem Inc., Downers Grove Ill.). After 5 weeks of 2-AAA treatment, and following a 6-hour fast, each group of mice was administered an intra-peritoneal glucose tolerance test (IPGTT; 1.5 mg/g of body weight; 75 mg/mL of glucose solution) or an insulin tolerance test (ITT; 0.00075 U of insulin/g of body weight, 0.15 U/ml insulin solution, Sigma-Aldrich, St. Louis, Mo.). For the IPGTT, venous blood samples were obtained from the tail vein immediately prior to glucose injection and then serially at 30, 60, and 120 minutes following the injection. For the ITT, venous blood samples were obtained from the tail vein immediately prior to the insulin injection and then serially at 15, 30, 45 and 60 minutes following the injection.
# (§3) Additional studies were performed using acute physiologic challenges, including acute glucose and insulin administration. As expected, mice fed a HFD had more pronounced glucose excursions following the glucose challenge (FIG. 4). […]
# C57B/L6 male mice [4] = assay: Fasting plasma insulin levels (ELISA) after 2-AAA treatment; format: in vivo; settings: after 5 weeks of 2-AAA; increase seen in HFD animals
# Method: FIG. 5 is a graph depicting fasting plasma insulin levels in 2-AAA mice fed either a standard chow (left) or high-fat diet (right) measured following completion of the 2-AAA treatment (5 weeks) in the mice on both diets (n=12 mice per condition) (*p<0.05).
# as §2, §3
# C57B/L6 male mice [5] = assay: Insulin tolerance test (ITT, acute insulin challenge) after 2-AAA treatment; format: in vivo; settings: ITT 0.00075 U insulin/g; SCD and HFD
# Method: FIGS. 6A and 6B are graphs depicting plasma glucose levels 2-AAA mice fed either a standard chow (left) or high-fat diet (right) measured following acute insulin challenge (n=15 per condition).
# as §2
# as §3, with “4). In mice fed both the SCD and HFD for 5 weeks or greater, peak glucose concentrations following the glucose challenge were lower in the 2-AAA treated mice.” for “4).”
# [6] = Plasma 2-AAA level in mice supplemented with 2-AAA; format: in vivo; settings: 500 mg/kg/day via drinking water; by one week of treatment; p=0.018
# Method: as §1
# For the perigonadal adipose tissue, metabolites were first extracted by mixing harvested tissues with 6 μL per 1 mg of adipose tissue of a MeOH:Chloroform solution (2:1 v/v). The extracted adipose tissues were then homogenized for 4 minutes at 25 Hz in a TissueLyser II. […] A calibration curve using 2-AAA d3 (C/D/N Isotopes Inc, Quebec Canada) was generated for absolute quantitation of 2-AAA in plasma and tissue samples. […] An isotopically labeled standard was used to facilitate absolute quantitation of the metabolite of interest in the setting of the different biological matrices.
# Beta TC6 (BTC6) cells = assay: Insulin secretion by BTC6 pancreatic beta cell line; format: cell-based, mouse; settings: for insulin secretion: 100 μM, 2.5 mM glucose
# Method: FIG. 8A is a graph depicting percent insulin secretion by BTC6 cells following incubation with 2-AAA at concentrations ranging from 0 to 100 μM for 0.5 to 72 hours.
# FIG. 8B is a graph depicting the effects of 2-AAA (30 μM), clonidine (100 μM) and phentolamine (100 μM) on insulin secretion by BTC6 cells.
# To investigate the connection between 2-AAA and the pancreas, insulin production by a pancreatic beta cell line that was acutely and chronically exposed to 2-AAA. Beta TC6 (BTC6) cells, an established model to examine insulin secretion (mouse insulinoma beta-TC-6 (ATCC® CRL-11506™) from ATCC (Manassas, Va.)) (27-29), were used at passage number 4-7, grown in DMEM (ATCC 2002-30), 15% FBS, with penicillin/streptomycin (100 IU/ml/100 μg/ml). Cells were plated on 24 well collagen plates at 40,000 cells per well, incubated with 2-AAA at varying concentrations ranging from 0 to 100 μM for 0 to 72 hours to assess whether this compound increases insulin secretion in a time and/or dose dependent fashion. On the day of experimentation, the cells were washed with PBS and the media was changed to DMEM without FBS or glucose to which 0.1% BSA was added. After 1 hour of incubation, this media was changed to serum free media containing 2.5 mM of glucose. Insulin production was measured in the supernatant after 1 additional hour of incubation. To assess the time response relationship, 2-AAA was added to the cells after plating on collagen and incubated for 0.5, 2, 6, and 72 hours.
# [7] = tested on: Islets from male C57BL/6J mice; assay: Insulin secretion from isolated mouse islets; format: cell-based; settings: 30 μM 2-AAA for 6 hours; 2.5 mmol/l glucose; normalized to islet content
# Method: FIG. 9 is a graph depicting insulin secretion from islets isolated from male C57BL/6J mice following incubation with 30 μM 2-AAA for 6 hours. Insulin was assayed using the Meso Scale Discovery multi array assay system for mouse/rat total insulin (Gaithersburg, Md., USA). Secretion was normalized to islet content. (n=3, p=0.016)
# Islets from male C57BL/6J mice were isolated by collagenase digestion of the pancreas, purified by Ficoll density gradient and then handpicked. Mouse islets were cultured for 24 hours as previously described (26). For insulin secretion experiments, 15 islets were placed in each microcentrifuge tube and incubated in islet secretion buffer containing (in mmol/1) 120 NaCl, 5 KCl, 1 CaCl2, 1.2 MgCl2, 24 NaHCO3, 10 HEPES, and 2.5 glucose, bubbled with 95% O2/5% CO2 and supplemented with 0.5% (wt/vol) BSA. Experiments were performed by incubating islets in 1 ml of secretion buffer in the presence or absence of 30 μM 2-AAA for 6 hours at 37° C., 5% CO2. Insulin was assayed using the Meso Scale Discovery multi array assay system for mouse/rat total insulin (Gaithersburg, Md., USA). Secretion was normalized to islet content.
differences in food intake or weight between treated and control mice [2],increase in plasma levels of 2-AAA versus unsupplemented mice [6],Compound,"fasting glucose levels in treated mice versus water alone (C57B/L6 male mice [1]; both diets, p<0.001 by 2-way ANOVA after 5 weeks)","fasting glucose levels (C57B/L6 male mice [1]; mice on high-fat diet (HFD), at 5 weeks)","fasting glucose levels (C57B/L6 male mice [1]; mice on standard chow diet (SCD), after 5 weeks)",peak glucose concentrations following the glucose challenge versus control (C57B/L6 male mice [3]),fasting insulin levels versus untreated animals (C57B/L6 male mice [4]),effect on rate of decline in glucose levels following acute insulin challenge (C57B/L6 male mice [5]),insulin secretion from BTC6 cells (Beta TC6 (BTC6) cells; 2-AAA 0 to 100 μM for 0.5 to 72 hours),incubation time at which augmented insulin secretion was evident (Beta TC6 (BTC6) cells; BTC6 cells),"peak insulin secretion relative to that of phentolamine (172±8% of control) (Beta TC6 (BTC6) cells; BTC6 cells, 2-AAA 30 μM vs phentolamine 100 μM)",insulin release from islets [7],insulin secretion (Beta TC6 (BTC6) cells; BTC6 cells)
no significant differences,33%,"N[C@H](CCCC(=O)O)C(=O)O (stereo in doubt) [2-AAA, 2-aminoadipic acid]",consistently lower,134.5 ± 5.9 mg/dL,109.5 ± 3.8 mg/dL,lower,further augmented,no effect,induced insulin secretion from BTC6 cells in a dose and time dependent fashion,at least 6 hours,comparable,release insulin,–
–,–,"Cc1ccc(N(CC2=NCCN2)c2cccc(O)c2)cc1 [phentolamine, reference compound]",–,–,–,–,–,–,–,–,–,–,172±8 % of control
–,–,"Clc1cccc(Cl)c1N=C1NCCN1 [clonidine, reference compound]",–,–,–,–,–,–,–,–,–,–,60±3 % of control
